Results reported in paper PMC11969438 (Inorganic Chemistry Frontiers, 2025).
Entries after “also recorded” stand apart in the source; their conditions may differ.

Columns and labels:
[1] = Hydrolytic stability in phosphate buffer, UHPLC; type: physicochemical; settings: 1 mM, 150 mM PB pH 7.4, 20 °C, over 24 h
Description: (§1) PB (150 mM, pH 7.4) containing 1 mM platinum compound was incubated at 20 °C, with and without the addition of 10 eq. of AA. The reaction was monitored using a Thermo Scientific Dionex UltiMate 3000 UHPLC system with a Waters Acquity UPLC BEH C18 1.7 μm 3.0 × 50 mm column. Milli-Q water containing 0.1% formic acid and acetonitrile containing 0.1% formic acid were used as eluents. A gradient of 5–95% over 5 min was used with a flow of 0.6 mL min^−1. To evaluate the current state of the reaction, the peak area of the parental complex was used.

[2] = tested on: CT-26 tumors; experiment: Anticancer efficacy in vivo, syngeneic colorectal carcinoma; design: species or system BALB/c mice
Description: (§2) Tumor size was determined daily via manual caliper measurement. […] Animals were euthanized via cervical dislocation.

[3] = tested on: THP1-Dual cells; experiment: Cytokine and chemokine secretion in cell culture supernatant, Luminex; type: cell-based, human; settings: 24 h
Description: Quantification of secreted protein targets in either cell culture SN or in plasma of treated animals was performed using a ProcartaPlex (96-well) multiplex assay panel (Thermo Fisher Scientific) in the xMAP detection platform (Luminex). For the in vitro detection of secreted proteins, THP1-Dual cells were seeded at 1 × 10^5 cells per well in 96-well plates in RPMI-1640 medium, supplemented with 10% FCS, L-glutamine and Pen-Strep. After 24 h of recovery, the compounds were applied at the concentrations indicated in triplicate.
After 24 h of drug incubation, the cell culture SN of technical triplicate was collected, pooled, centrifuged (400g, 10 min, 4 °C), transferred into a fresh tube, and stored at −20 °C.
(§3) Next, the ProcartaPlex (96-well) multiplex assay panel was performed according to the manufacturer's recommendations. In brief, the capture bead mix was incubated with test samples (undiluted SN or mouse plasma) or standard mix overnight. The SN of three independent experiments or the plasma of four animals per treatment group was loaded onto the multiplex assay plate. Next, biotinylated detection antibody mix and Streptavidin-PE were added to the plate. Following the recommended washing steps, the samples were incubated in a reading buffer and were measured using a Luminex xMAP platform (Bio-Plex MAGPIX Multiplex Reader; Bio-Rad Laboratories) and analyzed using xPONENT software.

[4] = Reduction kinetics with 10 eq. L-ascorbic acid in phosphate buffer, UHPLC; type: physicochemical; settings: 10 eq. AA, PB pH 7.4, 20 °C, after 24 h
Description: as §1

[5] = tested on: THP1-Dual cells; experiment: Quantitative RT-PCR of target genes downstream of STING; type: cell-based, human; settings: 24 h, prodrugs 100 μM, MSA-2 25 μM
Description: The THP1-Dual cell model was seeded at 1 × 10^6 cells per well in six-well plates. After 24 h of recovery, the compounds were applied at the concentrations indicated. After 24 h of drug exposure, total RNA was isolated using TRIzol reagent (Thermo Fisher Scientific, MA, USA), as described previously.[12] RNA was reverse transcribed into cDNA using RevertAid Reverse Transcriptase (Thermo Fisher Scientific). Real-time PCR was performed using the GoTaq® RT-qPCR system (Promega) with a CFX96 Touch Real-Time PCR Detection System (Bio-Rad Laboratories). Relative mRNA levels were quantified using the 2^−ddCT method.[54] RPL41 was used as a housekeeping gene. Human-specific primers were purchased from Eurofins Genomics (Ebersberg, Germany) with the following sequences: RPL41: fwd (5′-[…]-3′), rev (5′-[…]-3′); IFNB1: fwd (5′-CTTGGATTCCTACAAAGAAGCAGC-3′), rev (5′-[…]-3′); ISG15: fwd (5′-[…]-3′), rev (5′-[…]-3′); IFIT1: fwd (5′-[…]-3′), rev (5′-[…]-3′); CXCL10: fwd (5′-[…]-3′), rev (5′-[…]-3′); and CCL5: fwd (5′-[…]-3′), rev (5′-[…]-3′).

[6] = Cytokine and chemokine levels in plasma of treated animals, Luminex; type: in vivo, CT-26-bearing BALB/c mice; settings: 24 h after second dose
Description: as §3, §2

[7] = Hematological analysis after long-term treatment; settings: 72 h after the fourth dose
Description: Mice were kept in groups of four per cage with sterilized paper-based environmental enrichment and food and water ad libitum, under pathogen-free conditions and a controlled environment with a 12 h light–dark cycle. Syngeneic models of colorectal carcinoma were generated via subcutaneous injection of CT-26 cells (0.5 × 10^6 cells in 50 μL of serum-free RPMI-1640 medium) into the right flank of 8–12 weeks old BALB/c mice. […] All animals were euthanized 24 h after the second dose. […] To determine the anticancer efficacy of the investigated compounds, treatment started 4 d after tumor implantation, when all tumors were measurable (>25 mm^3) using a twice-weekly treatment scheme for two weeks. Tumor size was determined daily via manual caliper measurement. The tumor volume was calculated as tumor volume = (length × diameter × diameter)/2. The overall condition, shape, and activity of the animals were assessed daily. Peripheral blood was collected from the submandibular vein in K3E K3EDTA tubes (Greiner Bio-One; Kremsmünster, AUT) on ice and was analyzed for hematological parameters (red blood cells (RBCs), hemoglobin (HGB), hematocrit (HCT), red cell distribution width (RDW), mean corpuscular volume (MCV), white blood cells (WBCs), lymphocytes (LYM), monocytes (MO), granulocytes (GRA), and platelets (PLT) using a Vet ABC hematology analyzer (scil Animal Care GmbH, Viernheim, Germany). EDTA-blood was centrifuged (900g, 10 min) twice and the supernatant (EDTA-plasma) was stored at −20 °C for subsequent cytokine/chemokine analysis using a Luminex detection platform. All animal experiments were performed with humane endpoints based on Federation of European Laboratory Animal Science Associations guidelines and according to the regulations of the Ethics Committee for the Care and Use of Laboratory Animals at the Medical University Vienna (proposal number BMBWF 2023–0.122.324). Animals were euthanized upon reaching a tumor volume of >1500 mm^3, a loss in body weight (>20%), tumor ulceration or other indications of deteriorated health. Animals were euthanized via cervical dislocation.

[8] = tested on: HCT116 cells; experiment: MTT-based cell viability assay, 72 h; design: species or system human; settings: without AA
Description: Cell models were seeded (2–2.5 × 10^3 cells per well) in 96-well plates. After 24 h of recovery, the compounds were applied at the concentrations indicated in triplicate. Cell viability was determined after 72 h of continuous drug incubation using an MTT-based cell viability assay (EZ4U, Biomedica, Vienna, Austria) according to the manufacturer's recommendations. Absorbance was measured at 450 nm (vs. 620 nm as reference) using a multimode microplate reader (Tecan Spark, Zurich, Switzerland). Half-maximal inhibitory concentrations (IC50 values) were derived via interpolation from dose–response curves, modeled with the four-parameter logistic (4PL) nonlinear regression model in GraphPad Prism (La Jolla, CA, USA) from at least three independent experiments.

Compound | stability in PB [1] | tumor volume ([2]; peritumoral (p.t.) application, identical doses as i.v.) | secretion of cytokines and chemokines ([3]; prodrug 100 μM, MSA-2 25 μM) | complex remaining intact in presence of AA [4] | mRNA induction of immune response genes (IFN-β, ISG15, IFIT1, CXCL10, CCL5) [5] | plasma IFN-β, IL-6 and M-CSF [6] | platelet counts (PLT) / thrombocytopenia [7] | absolute counts of white blood cells and subpopulations ([7]; i.v. twice a week for two weeks) | IC50 [8] [nM] | tumor growth ([2]; i.v. twice a week for two weeks, equimolar to 9 mg kg^−1 oxaliplatin) | TNF-α and IFN-γ secretion ([3]; oxaliplatin 5 μM)
COCCOCCOCCOCCNC(=O)[O][Pt-2]12([O]C(=O)CCC(=O)c3cc4cc(OC)c(OC)cc4s3)([NH2+][C@@H]3CCCC[C@H]3[NH2+]1)[O]C(=O)C(=O)[O]2 [Ox-MSA-PEG-Ca, (OC-6-34)-[(1R,2R)-1,2-cyclohexanediamino]-oxalato-[4-(5,6-dimethoxybenzo[b]thiophen-2-yl)-4-oxobutylcarboxylato]-[3,6,9,12-tetraoxatridecan-1-amino]platinum(IV)] | very well comparable to Ox-MSA-PEG-Es | robust and significant decrease in the tumor volume; also recorded: distinct anticancer activity | induced distinct secretion of cytokines and chemokines | very well comparable to Ox-MSA-PEG-Es | distinctly raised transcript levels to a comparable extent as free MSA-2 | highest activations | – | – | – | – | –
COCCOCCOCCOCCC(=O)[O][Pt-2]12([O]C(=O)CCC(=O)c3cc4cc(OC)c(OC)cc4s3)([NH2+][C@@H]3CCCC[C@H]3[NH2+]1)[O]C(=O)C(=O)[O]2 [Ox-MSA-PEG-Es, (OC-6-44)-[(1R,2R)-1,2-cyclohexanediamino]-oxalato-[4-(5,6-dimethoxybenzo[b]thiophen-2-yl)-4-oxobutylcarboxylato]-[2,5,8,11-tetraoxatetradecanoato]platinum(IV)] | stable | – | – | ~80% | low propensity | – | – | – | – | – | –
O=C1[O][Pt]2([NH][C@@H]3CCCC[C@H]3[NH]2)[O]C1=O [oxaliplatin, reference compound] | – | – | – | – | – | – | distinctly reduced platelet counts | massively lowered | 800 | clearly reduced tumor growth | activated predominantly by oxaliplatin
